In patent publication US5159085A, “2-anilino phenylacetic acid derivatives as inhibitors of PLA2 and lipoxygenase” (American Home Products Corporation, priority 1991, dated 1992):
Where a name gives a salt, the structure may show the parent alone. Read-outs that look alike come from different tables or passages of the source.

Experiments:
[1] = test system: paw edema induced by exogenous PLA2 (snake, A. piscivorus piscivorus); experiment: In vivo PLA2 murine paw edema assay; design: species or system mouse (male CD-1); settings: for ED50 at +10 min: mouse; for change in vivo at 1 mg/kg: Mus musculus, ip, 0.5 h; for % Change in Edema 30 min / change in vivo at 1 mg/kg: 30 min
Experimental: The ability of the compounds of the invention to inhibit paw edema induced by the exogenous administration of PLA2 is measured in the in vivo PLA2 murine paw edema assay.
(§1) The assay is carried out as follows:
Non-fasted, male CD-1 mice (8 weeks old; 31-36 grams) are placed in plastic boxes in groups of six. The right hind paw volume is measured using mercury plethysmography (zero time). […] A solution of purified PLA2, from the diamond back cotton mouth snake (A. piscivorus piscivorus) is prepared in saline at a concentration of 6 μg/ml. Fifty (50) μl (0.3 μg) of this PLA2 solution is injected subcutaneously into the right hind paw with a plastic 1 ml plastic syringe (27 gauge, 1" needle). Paw volume of the injected paw is measured again at 10 minutes, 30 minutes and 60 minutes after PLA2 injection. Animals are euthanized with CO2 at the completion of the study.
The paw edema is calculated by subtracting the zero time volume from the volume recorded at each time period. Mean paw edema for each treatment group is then calculated and expressed as (μl±S.E.). Drug effects are expressed as a percent change from control (vehicle) values. Statistical significance is determined by a one-way analysis of variance with LSD comparison to control (p<0.05). ED50 's are determined using repression analysis.

[2] = test system: LTB4 synthesis by rat glycogen-elicited polymorphonuclear leukocytes (lipoxygenase); experiment: Inhibition of LTB4 synthesis by rat glycogen-elicited polymorphonuclear leukocytes (PMN); type: cell-based, rat (female Wistar); settings: A 23187 and exogenous AA; for inhibition at 0.5 µM: negative value denotes potentiation
From the text: This is especially true with respect to 5,12-diHETE, which is also denoted as LTB4 [see Ford-Hitchinson, J. Roy. Soc. Med., 74, 831 (1981)]. Compounds which inhibit the PLA2 -mediated release of arachidonic acid thereby effectively prevent the oxidation of arachidonic acid to the various leukotriene products via the lipoxygenase cascade. Accordingly, the specificity of action of PLA2 inhibitors can be determined by the activity of test compounds in this assay, which measures the ability of compounds to inhibit the synthesis of LTB4 by rat glycogen-elicited polymorphonuclear leukocytes (PMN) in the presence of exogenous substrate.
as §1
(§2) Rat polymorphonuclear leukocytes (PMNs) are obtained from female Wistar rats (150-200 g) which receive an injection of 6% glycogen (10 ml i.p.). Rats are sacrificed 18-24 hours post injection by CO2 asphyxiation and the elicited cells are harvested by peritoneal lavage using physiological saline (0.9% NaCl). The exudate is centrifuged at 400×g for 10 minutes. The supernatant fluid is discarded and the cell pellet is resuspended to a concentration of 2.0×10^7 cells/ml in HBSS containing Ca^++ and Mg^++ and 10 μM L-cysteine.
(§3) To 1 ml aliquots of cell suspension, test drugs or vehicle are added, then preincubated at 37° C. for 10 minutes. A 23187 (1 μM), [^3 H]-AA (3.0 μCi/ml) and unlabeled AA (1 μM) are then added and the samples are further incubated for 10 minutes. The reaction is terminated by centrifugation and pelleting cells. Supernatants are then analyzed by HPLC analysis on a 15 cm×4.6 mm ID supelcosil LC-18 (Supelco)(3M) column, using a two solvent system at a flow rate of 1.4 ml total flow as follows:
Gradient: (system is equillibrated with Solvent A)
(§4) Percent solvent changes are accomplished in a linear fashion.
(§5) Injections: 150 μl of each supernatant is injected directly onto column and ^3 H arachidonic acid metabolites are monitored using an on-line radioactivity detector (Ramona, IN/US, Fairfield, NJ).
(§6) Standards: 10^4 -2.0×10^4 dpm of eicosanoids of interest are injected in 90 μl EtOH cocktail.
(§7) Co-chromatography with standard [^3 H] leukotriene B4 (LTB4) in medium of stimulated PMN exposed to drug is compared to that found in medium of stimulated cells exposed to no drug, generating percent inhibition.
(§8) Results are expressed as percent inhibition at a given compound dose or as an IC50 value.

[3] = test system: TxB2 synthesis (cyclooxygenase) by rat glycogen-elicited polymorphonuclear leukocytes; experiment: Inhibition of TxB2 synthesis by rat glycogen-elicited PMN (cyclooxygenase); type: cell-based, rat (female Wistar); settings: for inhibition at 0.5 µM: negative values denote potentiation of cyclooxygenase; for IC50: rat PMN, read-out: IC50 (TxB2 synthesis)
Experimental: as §2, §3, §4, §5, §6, §7, §8
In this assay, the procedure of Example 19 is carried out as described. However, in order to determine cyclooxygenase activity, the samples are co-chromatographed with authentic reference [^3 H]-TxB2.
The results are calculated as in Example 19 and presented below: […]

[4] = biological target: T1, human synovial fluid PLA2 (Homo sapiens, UniProt P14555); experiment: In vitro isolated phospholipase A2 assay, human synovial fluid PLA2; type: biochemical; settings: 10 μM; human synovial fluid; negative values denote potentiation; read-out: % Inhibition at 10 μM HSF
T1 construct: Purified human synovial fluid; from tissue; host or cells: human synovial fluid
T1 sequence (P14555 21-144): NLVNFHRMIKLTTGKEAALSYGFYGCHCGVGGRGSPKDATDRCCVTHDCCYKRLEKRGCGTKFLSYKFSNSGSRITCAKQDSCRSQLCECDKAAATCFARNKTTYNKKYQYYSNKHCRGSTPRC
Experimental: The compounds of the invention are tested in an in vitro isolated phospholipase A2 assay to determine the ability of the test compounds to inhibit the release of arachidonic acid from an arachidonic acid-containing substrate by the action of phospholipase A2 enzyme from human and non-human sources.
This assay is carried out as follows:
Into a 15 mL polypropylene tube are added the following:
*pre-incubate at room temperature 30 min prior to substrate addition.
^5 Stock 10 mM prepared in dimethyl sulfoxide. Make 1:2 dilution with
dimethyl sulfoxide and add 1 μ L to 100 μL assay tube.
^6 Two human PLA2 enzymes are used:
b) Purified human synovial fluid.
Incubate the 100 μL reaction mixture for 10 minutes at 37° C. in a shaking water bath. The reaction is terminated by the addition of 2 mL tetrahydrofuran, followed by vortexing. NH2 columns (100 μg/mL--Analytichem International) are conditioned with 0.5 mL tetrahydrofuran followed by 0.5 mL tetrahydrofuran/water (2 mL:0.1 mL, v/v).
The sample is loaded onto the columns and slowly drawn through them. The hydrolyzed arachidonic acid retained in the columns is eluted therefrom with 1 mL tetrahydrofuran/glacial acetic acid (2%). The arachidonic acid is transferred to scintillation vials and quantitated by β-counting analysis. A "total counts" sample is prepared by pipetting 25 μL ^3 H-arachidonate E. coli directly into a scintillation vial to which is added 1 mL tetrahydrofuran. 10 mL aquasol (scintillation cocktail) is added to all samples. [formula]

human platelet PLA2 = biological target: T2, human platelet PLA2 (Homo sapiens, UniProt P14555); experiment: In vitro isolated phospholipase A2 assay, human platelet PLA2 (arachidonic acid release from 3H-AA E. coli substrate); type: biochemical; settings: human platelet; for inhibition at 10 µM: negative values denote potentiation, read-out: % Inhibition at 10 μM HP
T2 construct: Semipurified human platelet acid extract PLA2; from tissue; host or cells: human platelets (semipurified acid extract)
T2 sequence (P14555 21-144): T1 sequence (P14555 21-144)

inhibition at 10 µM [4] [%] | Molecule | % Change in Edema 10 min ([1]; 10 mg/kg i.p.) | % Change in Edema 30 min ([1]; 10 mg/kg i.p.) [%] | inhibition at 0.5 µM ([2]; Leukocyte) [%] | inhibition at 0.5 µM ([3]; Rattus norvegicus, Leukocyte) [%] | other results
 | COc1cccc2c1cc([N+](=O)[O-])c1c(C(=O)O)cc3c(c12)OCO3 [Aristolochic Acid, reference compound] |  |  |  |  | ED50 at +10 min ([1]; p.o., standard drugs): Not Active
 | C[C@@H]1C[C@H]2[C@@H]3CCC4=CC(=O)C=C[C@]4(C)[C@@]3(F)[C@@H](O)C[C@]2(C)[C@@]1(O)C(=O)CO [Dexamethasone, reference compound] |  |  |  |  | ED50 at +10 min ([1]; p.o. 3 hr, standard drug): 10 mg/kg
 | COC(=O)Cc1cc(OCc2ccc3ccccc3n2)ccc1Nc1c(Cl)cccc1Cl [Example 1, 2-[(2,6-Dichlorophenyl)amino]-5-(2-quinolinylmethoxy)-benzene acetic acid methyl ester ethanedioate (1:1)] | -77% | -37 | 96 | 4 | % Change in Edema 3 min ([1]; 1 mg/kg i.p.): -10%; % Change in Edema 10 min ([1]; 1 mg/kg i.p.): -31%; % Change in Edema 3 min ([1]; 10 mg/kg i.p.): -39%; change in vivo at 1 mg/kg ([1]; 1 mg/kg i.p.): -23%
 | O=C(O)Cc1cc(OCc2ccc3ccccc3n2)ccc1Nc1c(Cl)cccc1Cl [Example 4, 2-[(2,6-Dichlorophenyl)amino]-5-(2-quinolinylmethoxy)benzene acetic acid 2-amino-2-(hydroxymethyl)-1,3-propanediol salt (1:1)] |  |  |  |  | IC50 [3]: 3.7 µM
-127 | COC(=O)Cc1cc(OCc2ccc3ccc(Cl)cc3n2)ccc1Nc1c(Cl)cccc1Cl [Example 5, 5-[(7-Chloro-2-quinolyl)methoxy]-2-[(2,6-dichlorophenyl)amino]benzene acetic acid methyl ester] |  |  | 56 | 0 | inhibition at 10 µM (human platelet PLA2): -5.3%; inhibition at 10 µM ([2]; Leukocyte, at 10 μM): 95%; inhibition at 10 µM ([3]; Rattus norvegicus, Leukocyte, at 10 μM): 27%
 | COC(=O)Cc1cc(OCc2nc3ccccc3n2C)ccc1Nc1c(Cl)cccc1Cl [Example 10, 2-[(2,6-Dichlorophenyl)amino]-5-[(1-methyl-1H-benzimidazol-2-yl)methoxy]benzene acetic acid methyl ester] | -49% | -36 | 65 | 32 | % Change in Edema 10 min ([1]; 1 mg/kg i.p.): -29%; change in vivo at 1 mg/kg ([1]; 1 mg/kg i.p.): -20%
33.3 | Cn1c(COc2ccc(Nc3c(Cl)cccc3Cl)c(CC(=O)O)c2)nc2ccccc21 [Example 11, acetic acid] |  |  | -6 | -8 | 
-11 | O=C1Cc2cc(OCc3ccc4ccccc4n3)ccc2N1c1c(Cl)cccc1Cl [Example 13] |  |  | 89 | 10 | % Inhibition HP (human platelet PLA2; "at 50 SM"): 12.5%
-24 | O=C1Cc2cc(OCc3ccc4ccccc4n3)ccc2N1c1ccccc1 [Example 15, 1-Phenyl-5-(2-quinolinylmethoxy)-1,3-dihydro-2H-indol-2-one] |  |  | 40 | -9 | 
-4.3 | O=C(O)Cc1cc(OCc2ccc3ccccc3n2)ccc1Nc1ccccc1 [Example 16, 2-(Phenylamino)-5-(2-quinolinylmethoxy)benzene acetic acid] |  |  | 90 | 10 | inhibition at 10 µM (human platelet PLA2): 14.2%
5.1 | O=C1Cc2cc(OCc3ccc4ccc(Cl)cc4n3)ccc2N1c1c(Cl)cccc1Cl [Example 18, 1-(2,6-Dichlorophenyl)-5-[7-chloro-2-(quinolinylmethoxy)]-1,3-dihydro-2H-indol-2-one] |  |  |  |  | inhibition at 10 µM (human platelet PLA2): 2.2%
 | COc1ccc2cc([C@H](C)C(=O)O)ccc2c1 [Naproxen, reference compound] |  |  |  |  | ED50 at +10 min ([1]; p.o., standard drugs): 18 mg/kg
 | Luffarrellolide [reference compound] |  |  |  |  | ED50 at +10 min ([1]; p.o., standard drugs): Not Active

Molecule | inhibition at 10 µM [4] [%] | % Change in Edema 10 min ([1]; 10 mg/kg i.p.) | % Change in Edema 30 min ([1]; 10 mg/kg i.p.) [%] | inhibition at 0.5 µM ([2]; Leukocyte) [%] | inhibition at 0.5 µM ([3]; Rattus norvegicus, Leukocyte) [%] | other results
O=C(O)Cc1cc(OCc2ccc3ccccc3n2)ccc1Nc1c(Cl)cccc1Cl [Example 3, 2-[(2,6-Dichlorophenyl)amino]-5-(2-quinolinylmethoxy)benzene acetic acid sodium salt] | 21.7 | +12% | -10 |  |  | % Change in Edema 60 min ([1]; 10 mg/kg i.p.): +12%; IC50 ([2]; acetic acid sodium salt): 0.02 µM; IC50 ([3]; acetic acid sodium salt): > 1 µM
O=C(O)Cc1cc(OCc2ccc3ccc(Cl)cc3n2)ccc1Nc1c(Cl)cccc1Cl [Example 6, 5[(7-Chloro-2-quinolinyl)methoxy]-2-[(2,6-dichlorophenyl)amino]benzene acetic acid] | 38.8 | -24% | -24 | 80 | 26 | % Change in Edema 3 min ([1]; 1 mg/kg i.p.): -4%; % Change in Edema 10 min ([1]; 1 mg/kg i.p.): -18%; % Change in Edema 60 min ([1]; 10 mg/kg i.p.): -32%; % Change in Edema 10 min ([1]; 50 mg/kg p.o.): -18%; % Change in Edema 30 min ([1]; 50 mg/kg p.o.): -39%; % Change in Edema 60 min ([1]; 50 mg/kg p.o.): -10%; change in vivo at 1 mg/kg ([1]; 1 mg/kg i.p.): -12%; inhibition at 10 µM (human platelet PLA2): -8.6%
CONC(=O)Cc1cc(OCc2ccc3ccccc3n2)ccc1Nc1c(Cl)cccc1Cl [Example 12] | -41.5 | -15% | -45 | 70 | -2 | % Change in Edema 60 min ([1]; 10 mg/kg i.p.): -28%; % Change in Edema 10 min ([1]; 50 mg/kg p.o.): -2%; % Change in Edema 30 min ([1]; 50 mg/kg p.o.): -36%; % Change in Edema 60 min ([1]; 50 mg/kg p.o.): -22%
